Among the data in patent US12703706B2, “Anthelmintic compounds comprising a thienopyridine structure” (Intervet Inc., priority 2020, dated 2026) are EC50 and inhibition in vivo values, retold here.

Assay [1] concerns the target human Maxi K channel (BK channel), KCNMA1 (KCa1.1) and beta1 (KCNMB1) subunits (Homo sapiens, UniProt Q12791).
Experimental: In Vitro Assay: Agonistic Activity at the Human Maxi K Channel (BK Channel)
A CHO K1 cell line was stably transfected with the KCNMA1 (KCa1.1, U11058) and betal (KCNMB1) subunits of the human Maxi K channel (Ponte et al, Molecular Pharmacology 2012, 81(4), 567-577).
Cells were seeded in microtiter plates (black 384-well MTP, clear bottom) in a concentration of 20,000 cells/well in 25 μl medium and cultured for 20 to 24 hours at 37° C. and 5% CO2. After incubation, 25 μl of FMP-dye Blue-Tyrode's was added to each well and incubated at room temperature for 30 min. Ten minutes after addition of 12.5 μl compound solution, the plates are transferred to the FLIPR for measurement.
For the membrane potential measurements, plates were placed in the FLIPR Penta (Molecular Devices). The baseline measurement of the fluorescence was stared for 20 sec (Exc. 510-545 nm, Emm. 565-625 nm). Potential channel opening measurement was started by addition of 25 μl KCl-Tyrode (final assay concentration of the KCl-Tyrode: 70 mM KCl, 2 mM CaCl2, 1 mM MgCl2, 0.8 mM NaH2PO4, 5 mM Glucose, 28 mM Hepes, pH 7.4, including the voltage sensitive dye). The complete measurement takes 150 s.
EC50 values were determined in triplicate utilizing compound dilution series. The data were determined at least in two independent tests. The data were proceeded by using the ActivityBase XE Runner software (IDBS) for curve fitting and calculation of the half-maximal effective concentration.
The subject of assay [2] is Haemonchus contortus. Nature of the assay: In vivo efficacy against Haemonchus contortus in jirds. Particulars: in Meriones unguiculatus, 72 h, read-out: reduction of the Haemonchus contortus count.
Experimental: In Vivo Assay: Efficacy Against Haemonchus contortus in Jirds
The jirds were orally infected with approximately 1500 third-stage larvae of Haemonchus contortus. Ten days after infection, the jirds in the treatment groups were treated once either orally or subcutaneously with compounds at a dose of 10 mg per kg bodyweight. For treatment, compounds were dissolved in a mixture of 10% Transcutol, 10% Cremophor EL and 80% physiological sodium chloride solution. Three days after treatment, the jirds were necropsied, and the larvae burden in the stomach was determined. The efficacy was defined as the reduction of the mean larvae count in the infected jirds of the treatment group in comparison to the infected jirds in an untreated control group (negative control).
For assay [3], the system named is D. immitis microfilaria (L1). Nature of the assay: In vitro assay Dirofilaria immitis L1, motility of microfilaria. The following applies: 72 h, read-out: EC50 value, Dirofilaria immitis L1, reduction in motility vs DMSO, incubation 3 days. The format is cell-based.
The test system of assay [4] is A. viteae microfilaria (L1). The assay can be described thus: In vitro assay Acanthocheilonema viteae L1, motility of microfilaria. Particulars: 72 h, read-out: EC50 value, Acanthocheilonema viteae L1, reduction in motility vs DMSO, incubation 3 days.
Experimental: Approximately 500 A. viteae microfilaria were added to a microtiter plate containing a nutrient medium and the test compound in DMSO at varying concentrations. After incubation for 3 days, activity was evaluated as reduction in motility as compared to DMSO as negative control.
Compounds were tested in duplicates. Based on the concentration response curves EC50 values were calculated.

Each structure is given as a SMILES string.

Sequence of human Maxi K channel (BK channel), KCNMA1 (KCa1.1) and beta1 (KCNMB1) subunits (Q12791 1-1178 isoform Q12791-5): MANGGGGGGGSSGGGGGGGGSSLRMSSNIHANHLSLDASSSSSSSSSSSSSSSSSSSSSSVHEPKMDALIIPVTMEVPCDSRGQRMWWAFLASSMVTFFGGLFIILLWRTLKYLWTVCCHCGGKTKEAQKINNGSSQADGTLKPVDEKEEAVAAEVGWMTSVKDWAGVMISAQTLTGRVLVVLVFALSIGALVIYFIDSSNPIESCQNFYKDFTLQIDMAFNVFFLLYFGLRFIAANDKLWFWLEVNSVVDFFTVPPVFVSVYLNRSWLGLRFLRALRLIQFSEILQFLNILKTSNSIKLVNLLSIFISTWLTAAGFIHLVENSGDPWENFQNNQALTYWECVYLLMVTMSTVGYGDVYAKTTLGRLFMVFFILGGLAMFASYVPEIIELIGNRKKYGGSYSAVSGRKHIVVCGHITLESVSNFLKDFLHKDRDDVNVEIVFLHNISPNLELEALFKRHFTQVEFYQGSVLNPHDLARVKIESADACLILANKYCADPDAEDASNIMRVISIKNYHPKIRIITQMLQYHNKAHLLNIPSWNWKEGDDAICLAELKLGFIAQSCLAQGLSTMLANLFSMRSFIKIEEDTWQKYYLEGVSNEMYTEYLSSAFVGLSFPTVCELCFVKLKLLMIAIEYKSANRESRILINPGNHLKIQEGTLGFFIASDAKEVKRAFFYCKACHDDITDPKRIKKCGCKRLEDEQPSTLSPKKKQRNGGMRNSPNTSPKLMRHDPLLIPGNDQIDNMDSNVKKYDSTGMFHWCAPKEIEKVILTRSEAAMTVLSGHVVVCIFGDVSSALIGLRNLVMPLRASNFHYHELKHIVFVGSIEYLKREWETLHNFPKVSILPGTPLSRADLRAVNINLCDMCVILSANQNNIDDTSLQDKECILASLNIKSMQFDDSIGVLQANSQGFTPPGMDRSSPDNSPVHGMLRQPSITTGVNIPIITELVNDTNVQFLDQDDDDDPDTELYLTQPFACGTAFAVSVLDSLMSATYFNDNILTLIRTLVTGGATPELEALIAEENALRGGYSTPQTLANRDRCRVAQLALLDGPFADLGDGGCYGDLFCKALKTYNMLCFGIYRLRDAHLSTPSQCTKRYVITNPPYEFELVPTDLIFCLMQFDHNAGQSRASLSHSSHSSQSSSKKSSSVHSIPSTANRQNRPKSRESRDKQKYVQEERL
Sequence of human Maxi K channel (BK channel), KCNMA1 (KCa1.1) and beta1 (KCNMB1) subunits (Q16558 whole entry partner): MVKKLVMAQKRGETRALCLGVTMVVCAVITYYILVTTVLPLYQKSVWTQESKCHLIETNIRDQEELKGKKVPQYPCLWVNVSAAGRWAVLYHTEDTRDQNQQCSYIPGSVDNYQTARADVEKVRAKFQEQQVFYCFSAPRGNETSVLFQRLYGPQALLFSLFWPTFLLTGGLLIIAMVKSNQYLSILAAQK

Turning to `CN(C)c1c(C(=O)N[C@H]2CCOc3ccccc32)cnc2c(-c3cccc(Cl)c3Cl)csc12` [Compound 10], in assay [1], the concentration giving a half-maximal response (EC50) – broadly, the concentration giving half of the maximal effect – was greater than 30 µM. Further, the inhibition in vivo at 10 mg/kg in assay [2] was no less than 80%. As for `O=C(Nc1cccc2ccccc12)c1cnc2c(-c3cccc(Cl)c3Cl)csc2c1N1CCOCC1` [Compound 14], the figures for the concentration giving a half-maximal response (EC50) in assay [3] and in assay [1] were less than 10 µM and greater than 30 µM, respectively. As for `CN1CCN(c2c(C(=O)N[C@H]3CCOc4ccccc43)cnc3c(-c4cccc(Cl)c4Cl)csc23)CC1` [Compound 17], the EC50 in assay [4] is less than 10 µM; in assay [3], less than 10 µM; in assay [1], greater than 30 µM. The molecule `Cc1sc2c(N(C)C)c(C(=O)N[C@H]3CCOc4ccccc43)cnc2c1-c1cccc(Cl)c1Cl` [Compound 36, (S)—N-(chroman-4-yl)-3-(2,3-dichlorophenyl)-7-dimethylamino-2-methylthieno[3,2-b]pyridine-6-carboxamide] gave a half-maximal effective concentration (EC50) in assay [1] greater than 30 µM. Moreover, in assay [2], the inhibition in vivo at 10 mg/kg was no less than 80%. In assay [1], `Cc1sc2c(N(C)C)c(C(=O)N[C@H]3CCOc4ccccc43)cnc2c1-c1cc(Cl)cc(Cl)c1` [Compound 53] yielded a concentration giving a half-maximal response (EC50) greater than 30 µM. The inhibition in vivo at 10 mg/kg in assay [2] is no less than 80%. For `Cc1sc2c(N3CC(F)(F)C3)c(C(=O)N[C@H]3CCOc4ccccc43)cnc2c1-c1cccc(Cl)c1Cl` [Compound 56], in that order: greater than 30 µM and no less than 80%. The matching figures for `Cc1sc2c(N3CC(F)C3)c(C(=O)N[C@H]3CCOc4ccccc43)cnc2c1-c1cccc(Cl)c1Cl` [Compound 62]: greater than 30 µM and no less than 80%. Regarding `Cc1sc2c(N3CC(F)C3)c(C(=O)N[C@H]3CCOc4ccccc43)cnc2c1-c1cc(Cl)cc(Cl)c1` [Compound 65], the EC50 in assay [1] was greater than 30 µM. In addition, the inhibition in vivo at 10 mg/kg in assay [2] is no less than 80%.

In turn, `Cc1sc2c(N3CCOCC3)c(C(=O)N[C@H]3CCOc4ccccc43)cnc2c1-c1cc(Cl)cc(Cl)c1` [Compound 68] gave an EC50 in assay [1] greater than 30 µM. Besides, in assay [2], the inhibition in vivo at 10 mg/kg is no less than 80%. For `Cc1sc2c(N3CCOCC3)c(C(=O)N[C@H]3CCOc4ccccc43)cnc2c1-c1cccc(Cl)c1Cl` [Compound 72], in that order: greater than 30 µM and no less than 80%.

For the molecule `O=C(N[C@H]1CCOc2ccccc21)c1cnc2c(-c3cc(Cl)cc(Cl)c3)csc2c1N1CC(F)(F)C1` [Compound 76], in assay [1], the concentration for a half-maximal effect (EC50) is greater than 30 µM. For the molecule `O=C(N[C@H]1CCc2ccccc21)c1cnc2c(-c3cc(Cl)cc(Cl)c3)csc2c1N1CC(F)(F)C1` [Compound 77], the EC50 in assay [1] is greater than 30 µM. The molecule `CN(C)c1c(C(=O)NC2COc3ccccc32)cnc2c(-c3cccc(Cl)c3Cl)csc12` (stereo not shown) [Compound 78] yielded an EC50 in assay [1] greater than 30 µM.

With `O=C(NC1COc2ccccc21)c1cnc2c(-c3cccc(Cl)c3Cl)csc2c1N1CCOCC1` (stereo not shown) [Compound 79], the EC50 in assay [1] is greater than 30 µM. Regarding `O=C(NC1COc2ccccc21)c1cnc2c(-c3cccc(Cl)c3)csc2c1N1CCOCC1` (stereo not shown) [Compound 80], the values for the concentration giving a half-maximal response (EC50) in assay [3] and in assay [1] were less than 10 µM and greater than 30 µM, respectively. `O=C(NC1COc2ccccc21)c1cnc2c(-c3cc(Cl)cc(Cl)c3)csc2c1N1CCOCC1` (stereo not shown) [Compound 81] yielded an EC50 in assay [1] greater than 30 µM. Same read-out and setting: for `COCCNc1c(C(=O)N[C@H]2CCOc3ccccc32)cnc2c(-c3cc(F)cc(F)c3F)csc12` [Compound 82] the value was greater than 30 µM; for `O=C(N[C@H]1CCOc2ccccc21)c1cnc2c(-c3cc(F)cc(F)c3)csc2c1N1CCC1` [Compound 83], greater than 30 µM.

`O=C(N[C@H]1CCOc2ccccc21)c1cnc2c(-c3cc(F)cc(F)c3F)csc2c1N1CCC1` [Compound 84] came in with an EC50 in assay [1] greater than 30 µM. `O=C(N[C@H]1CCOc2ccccc21)c1cnc2c(-c3cccc(F)c3F)csc2c1N1CCC1` [Compound 85]: the EC50 in assay [1] is greater than 30 µM.

For the molecule `O=C(N[C@H]1CCOc2ccccc21)c1cnc2c(-c3cc(F)cc(F)c3)csc2c1NC1CC1` [Compound 86], the concentration for a half-maximal effect (EC50) in assay [1] is greater than 30 µM. Molecule `O=C(N[C@H]1CCOc2ccccc21)c1cnc2c(-c3cccc(F)c3F)csc2c1NC1CC1` [Compound 87] gave an EC50 in assay [1] greater than 30 µM.

For the molecule `O=C(N[C@H]1CCOc2ccccc21)c1cnc2c(-c3cc(F)cc(F)c3F)csc2c1NC1CC1` [Compound 88], the 50% effective concentration (EC50) in assay [1] was greater than 30 µM. As for `O=C(N[C@H]1CCOc2ccccc21)c1cnc2c(-c3cccc(C(F)(F)F)c3)csc2c1NC1CC1` [Compound 89], the EC50 in assay [1] is greater than 30 µM. The molecule `O=C(N[C@H]1CCOc2ccccc21)c1cnc2c(-c3cccc(C(F)(F)F)c3)csc2c1N1CCC1` [Compound 90] gave an EC50 in assay [1] greater than 30 µM. With `O=C(N[C@H]1CCOc2ccccc21)c1cnc2c(-c3cccc(F)c3F)csc2c1N1CC(F)C1` [Compound 91], the concentration giving a half-maximal response (EC50) in assay [1] is greater than 30 µM. Take `O=C(N[C@H]1CCOc2ccccc21)c1cnc2c(-c3cc(F)cc(F)c3)csc2c1N1CC(F)C1` [Compound 92]: the EC50 in assay [1] is greater than 30 µM. For the molecule `O=C(N[C@H]1CCOc2ccccc21)c1cnc2c(-c3cccc(C(F)(F)F)c3)csc2c1N1CC(F)C1` [Compound 93], the 50% effective concentration (EC50) in assay [1] was greater than 30 µM. As for `O=C(N[C@H]1CCOc2ccccc21)c1cnc2c(-c3cc(F)cc(F)c3F)csc2c1NCCO` [Compound 94], in assay [1], the concentration for a half-maximal effect (EC50) was greater than 30 µM.

For `CN(CCO)c1c(C(=O)N[C@H]2CCOc3ccccc32)cnc2c(-c3cc(F)cc(F)c3F)csc12` [Compound 95], the concentration for a half-maximal effect (EC50) in assay [1] is greater than 30 µM. In assay [1], `CN(C)c1c(C(=O)NC2COc3ccccc32)cnc2c(-c3cc(Cl)cc(Cl)c3)csc12` (stereo not shown) [Compound 96] showed a concentration giving a half-maximal response (EC50) greater than 30 µM. The molecule `CN(C)c1c(C(=O)N[C@H]2CCOc3ccccc32)cnc2c(-c3cccc(OC(F)(F)F)c3)csc12` [Compound 97] returned an EC50 in assay [1] greater than 30 µM. Regarding `CN(C)c1cccc(-c2csc3c(N(C)C)c(C(=O)N[C@H]4CCOc5ccccc54)cnc23)c1` [Compound 98], the half-maximal effective concentration (EC50) in assay [1] is greater than 30 µM.

Take `O=C(N[C@H]1CCc2ccccc21)c1cnc2c(-c3cccc(Cl)c3Cl)csc2c1N1CC(F)C1` [Compound 99]: in assay [1], the EC50 is greater than 30 µM. On to `O=C(N[C@@H]1COc2ccccc21)c1cnc2c(-c3cc(Cl)cc(Cl)c3)csc2c1N1CCOCC1` [Compound 100], for which the half-maximal effective concentration (EC50) in assay [1] was greater than 30 µM.

For `O=C(N[C@H]1CCOc2ccccc21)c1cnc2c(-c3cc(Cl)cc(Cl)c3)csc2c1N1CC(F)C1` [Compound 101], the EC50 in assay [1] is greater than 30 µM. On to `Cc1sc2c(N(C)C)c(C(=O)N[C@H]3CCOc4ccccc43)cnc2c1-c1cc(F)cc(F)c1F` [Compound 102], for which the concentration for a half-maximal effect (EC50) in assay [1] was greater than 30 µM. For the same molecule, the inhibition in vivo at 10 mg/kg in assay [2] was no less than 80%. `Cc1sc2c(N(C)C)c(C(=O)N[C@H]3CCOc4ccccc43)cnc2c1-c1cc(F)cc(F)c1` [Compound 103]: the concentration giving a half-maximal response (EC50) in assay [1] is greater than 30 µM.

In turn, `Cc1sc2c(N(C)C)c(C(=O)N[C@H]3CCOc4ccccc43)cnc2c1-c1cccc(C(F)(F)F)c1` [Compound 104] showed an EC50 in assay [1] greater than 30 µM. On to `Cc1sc2c(N(C)C)c(C(=O)N[C@H]3CCOc4ccccc43)cnc2c1-c1cccc(OC(F)(F)F)c1` [Compound 105], for which the EC50 in assay [1] was greater than 30 µM. Consider `Cc1sc2c(N3CCOCC3)c(C(=O)N[C@H]3CCOc4ccccc43)cnc2c1-c1cc(F)cc(F)c1F` [Compound 106], for which, in assay [1], the half-maximal effective concentration (EC50) is greater than 30 µM. In turn, `Cc1sc2c(N3CCOCC3)c(C(=O)N[C@H]3CCOc4ccccc43)cnc2c1-c1cc(F)cc(F)c1` [Compound 107] registered an EC50 in assay [1] greater than 30 µM.

As for `Cc1sc2c(N3CCOCC3)c(C(=O)N[C@H]3CCOc4ccccc43)cnc2c1-c1cccc(C(F)(F)F)c1` [Compound 108], the EC50 in assay [1] is greater than 30 µM. As for `Cc1sc2c(N3CCOCC3)c(C(=O)N[C@H]3CCOc4ccccc43)cnc2c1-c1cccc(OC(F)(F)F)c1` [Compound 109], the EC50 in assay [1] is greater than 30 µM.

Molecule `Cc1sc2c(N3CCOCC3)c(C(=O)N[C@H]3CCc4ccccc43)cnc2c1-c1cc(F)cc(F)c1F` [Compound 110] showed an EC50 in assay [1] greater than 30 µM. In assay [1], `Cc1sc2c(N3CCOCC3)c(C(=O)N[C@H]3CCc4ccccc43)cnc2c1-c1cc(F)cc(F)c1` [Compound 111] yielded an EC50 greater than 30 µM. `Cc1sc2c(N3CCOCC3)c(C(=O)N[C@H]3CCc4ccccc43)cnc2c1-c1cccc(C(F)(F)F)c1` [Compound 112] yielded an EC50 in assay [1] greater than 30 µM. In assay [1], `Cc1sc2c(N3CCOCC3)c(C(=O)N[C@H]3CCc4ccccc43)cnc2c1-c1cccc(OC(F)(F)F)c1` [Compound 113] gave an EC50 greater than 30 µM.
